The values that follow come from ChEMBL document CHEMBL5620405, “A platform for the rapid synthesis of molecular glues (Rapid-Glue) under miniaturized conditions for direct biological screening” (Eur J Med Chem, 2023).

Test [1] relates to RS4-11. As to the kind of experiment: Antiproliferative activity against human RS4-11 cells assessed as reduction in cell viability measured after 72 hrs by Alamar blue assay. Particulars: RS4-11, 72 h. Format: functional, cell-based.
Test [2] addresses T1, Protein cereblon/Eukaryotic peptide chain release factor GTP-binding subunit ERF3A (Homo sapiens, UniProt Q96SW2+P15170). As to the kind of experiment: Molecular glue activity at CRBN/GSPT1 in human RS4-11 cells assessed as induction of GSPT1 degradation measured after 12 hrs by western blot analysis. The test is classed as cell-based. Particulars: dose 0.0001-10 µM.
Target sequence in this assay (P15170 whole entry, looked up): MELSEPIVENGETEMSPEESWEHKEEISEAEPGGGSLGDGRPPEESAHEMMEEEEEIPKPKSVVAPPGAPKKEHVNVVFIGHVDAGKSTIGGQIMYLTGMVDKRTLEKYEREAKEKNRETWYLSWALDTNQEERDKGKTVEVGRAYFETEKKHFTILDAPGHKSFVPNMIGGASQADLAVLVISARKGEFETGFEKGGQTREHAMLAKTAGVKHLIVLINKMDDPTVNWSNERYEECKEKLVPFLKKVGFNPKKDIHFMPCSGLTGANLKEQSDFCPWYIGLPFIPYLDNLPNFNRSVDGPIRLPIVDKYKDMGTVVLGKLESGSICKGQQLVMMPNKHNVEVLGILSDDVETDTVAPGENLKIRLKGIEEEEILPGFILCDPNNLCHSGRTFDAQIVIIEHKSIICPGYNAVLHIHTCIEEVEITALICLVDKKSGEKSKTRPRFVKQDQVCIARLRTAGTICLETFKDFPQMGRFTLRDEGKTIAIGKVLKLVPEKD
Target sequence in this assay (Q96SW2 whole entry, looked up): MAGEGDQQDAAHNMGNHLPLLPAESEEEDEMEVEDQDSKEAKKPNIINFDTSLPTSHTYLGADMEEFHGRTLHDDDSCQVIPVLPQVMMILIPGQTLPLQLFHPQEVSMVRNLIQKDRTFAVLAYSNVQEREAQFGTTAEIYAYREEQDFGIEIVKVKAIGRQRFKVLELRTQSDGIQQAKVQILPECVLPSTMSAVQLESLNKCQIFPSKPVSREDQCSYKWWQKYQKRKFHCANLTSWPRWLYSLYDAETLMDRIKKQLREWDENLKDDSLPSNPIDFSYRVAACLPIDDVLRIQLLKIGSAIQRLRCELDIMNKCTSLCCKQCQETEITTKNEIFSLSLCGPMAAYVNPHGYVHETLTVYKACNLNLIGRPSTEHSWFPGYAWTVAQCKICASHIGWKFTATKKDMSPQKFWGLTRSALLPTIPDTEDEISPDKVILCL
Test [3] concerns the target T1, Protein cereblon/Eukaryotic peptide chain release factor GTP-binding subunit ERF3A. In words: Molecular glue activity at CRBN/GSPT1 in human RS4-11 cells assessed as induction of GSPT1 degradation by measuring reduction in GSPT1 level measured for 6 hrs by western blot analysis. The test is classed as cell-based. On the set-up: scale not given: the % may be the effect or the level left.
Target sequence in this assay (P15170 whole entry, looked up): as the sequence (P15170 whole entry, looked up) above
Target sequence in this assay (Q96SW2 whole entry, looked up): as the sequence (Q96SW2 whole entry, looked up) above

Test [4] has the same target. In words: Molecular glue activity at CRBN/GSPT1 in human RS4-11 cells assessed as induction of GSPT1 degradation by western blot analysis. The test is classed as cell-based.
Target sequence in this assay (Q96SW2 whole entry): as the sequence (Q96SW2 whole entry, looked up) above
Target sequence in this assay (P15170 whole entry): as the sequence (P15170 whole entry, looked up) above
Test [5] relates to MOLT-4. As to the kind of experiment: Antiproliferative activity against human MOLT-4 cells assessed as cell viability at 1 uM measured after 72 hrs by Alamar blue assay. The test is classed as functional. Particulars: read-out: Activity.
Test [6] concerns RS4-11. In words: Antiproliferative activity against human RS4-11 cells assessed as cell viability at 0.5 uM measured after 72 hrs by Alamar blue assay. Format: functional. Conditions: read-out: Activity.
In test [7] the target is T1, Protein cereblon/Eukaryotic peptide chain release factor GTP-binding subunit ERF3A. As to the kind of experiment: Molecular glue activity at CRBN/GSPT1 in human RS4-11 cells assessed as induction of GSPT1 degradation at 1 uM measured after 4 hrs by western blot analysis. Format: cell-based.
Target sequence in this assay (P15170 whole entry, looked up): as above
Target sequence in this assay (Q96SW2 whole entry, looked up): as the sequence (Q96SW2 whole entry, looked up) above
The subject of test [8] is RS4-11. In words: Antiproliferative activity against human RS4-11 cells assessed as cell viability at 0.1 uM measured after 72 hrs by Alamar blue assay. The test is classed as functional. Conditions: read-out: Activity.
The target in test [9] is T1, Protein cereblon/Eukaryotic peptide chain release factor GTP-binding subunit ERF3A. As to the kind of experiment: Molecular glue activity at CRBN/GSPT1 in human RS4-11 cells assessed as induction of GSPT1 degradation at 0.1 uM measured after 24 hrs by western blot analysis. Format: cell-based.
Target sequence in this assay (P15170 whole entry, looked up): as the sequence (P15170 whole entry, looked up) above
Target sequence in this assay (Q96SW2 whole entry, looked up): as the sequence (Q96SW2 whole entry, looked up) above
Test [10] relates to MOLT-4. In words: Antiproliferative activity against human MOLT-4 cells assessed as reduction in cell viability measured after 72 hrs by Alamar blue assay. The test is classed as functional, cell-based. Conditions: MOLT-4, 72 h.
In test [11] the target is T1, Protein cereblon/Eukaryotic peptide chain release factor GTP-binding subunit ERF3A. As to the kind of experiment: Molecular glue activity at CRBN/GSPT1 in human RS4-11 cells assessed as downregulation of GSPT1 expression at 1 uM measured after 6 hrs by TMT-mass spectrometry. Format: cell-based.
Target sequence in this assay (P15170 whole entry, looked up): as the sequence (P15170 whole entry, looked up) above
Target sequence in this assay (Q96SW2 whole entry, looked up): as the sequence (Q96SW2 whole entry, looked up) above
In test [12] the test system is MM1.S. As to the kind of experiment: Antiproliferative activity against human MM1.S cells assessed as reduction in cell viability measured after 72 hrs by Alamar blue assay. Format: functional, cell-based.
Test [13] deals with T1, Protein cereblon/Eukaryotic peptide chain release factor GTP-binding subunit ERF3A. As to the kind of experiment: Molecular glue activity at CRBN/GSPT1 in human RS4-11 cells assessed as induction of GSPT1 degradation at 1 uM by western blot analysis. Conditions: time 0.5-24 hrs, TDE = time-dependent effect. Format: cell-based.
Target sequence in this assay (P15170 whole entry, looked up): as the sequence (P15170 whole entry, looked up) above
Target sequence in this assay (Q96SW2 whole entry, looked up): as the sequence (Q96SW2 whole entry, looked up) above
For test [14], the system named is RS4-11. As to the kind of experiment: Antiproliferative activity against human RS4-11 cells assessed as cell viability at 1 uM measured after 72 hrs by Alamar blue assay. Particulars: read-out: Activity. The test is classed as functional.

The source made the active and inactive calls. The rule behind the calls is not given here.

Take `O=C1CCC(N2Cc3cc(CNC(=O)C(F)(F)c4ccc(Cl)cc4)ccc3C2=O)C(=O)N1` (centres undefined): in test [1], the IC50 worked out at 0.1 nM.

For the compound `O=C(COc1ccccc1-c1cccc2c1CN(C1CCC(=O)NC1=O)C2=O)N/N=C/c1cn(S(=O)(=O)c2ccccc2)c2ccccc12` (centres undefined), the Activity result was “Dose-Dependent Effect” in [2]; greater than 50% in [3]; 100% in test [7]; 100% in [9]; “Tde” in test [13]. In addition, the IC50 in [1] amounted to 7 nM; in test [10], 175 nM; in test [12] it was 131 nM. In addition, the DC50 in [4] turned out to be 154 nM. Further, the results for the viability at 1 µM in test [5] and in test [14] were 43% and 15%, respectively. The viability at 0.5 µM in [6] came out at 5%. Moreover, the viability at 0.1 µM in test [8] was 52%. Besides, in test [11], the result was Active.

For the compound `CN1C(=O)CCC(N2Cc3c(cccc3-c3ccccc3OCC(=O)N/N=C/c3cn(S(=O)(=O)c4ccccc4)c4ccccc34)C2=O)C1=O` (centres undefined), the values for the IC50 in test [1], in test [10] and in [12] were greater than 1000 nM, greater than 1000 nM and greater than 10000 nM, respectively. The viability at 1 µM is greater than 100% in [5] and 97% in test [14].

Consider `CN1CCN(c2ncc(/C=N/NC(=O)COc3ccccc3-c3cccc4c3CN(C3CCC(=O)NC3=O)C4=O)s2)CC1` (centres undefined), for which the IC50 in test [1] was 71 nM; in test [10], greater than 1000 nM; in test [12], greater than 10000 nM. In addition, the viability at 1 µM in test [5] came out at 66%; in test [14], 24%. Also, the viability at 0.5 µM in test [6] is 23%. Further, the viability at 0.1 µM in [8] stood at 56%.

Turning to `CN1C(=O)CCC(N2Cc3cc(-c4ccc(OCC(=O)N/N=C/c5c(C(F)(F)F)ccc(Cl)c5Cl)cc4)ccc3C2=O)C1=O` (centres undefined), the viability at 1 µM in test [5] and in test [14] was greater than 100% throughout.

On to `O=C(COc1ccccc1-c1cccc2c1CN(C1CCC(=O)NC1=O)C2=O)NCc1nn(Cc2ccccc2)c2ccccc12` (centres undefined), for which, in [4], the DC50 was found to be 785 nM.

In the case of `Cc1nc2ccccn2c1/C=N/NC(=O)COc1ccccc1-c1cccc2c1CN(C1CCC(=O)NC1=O)C2=O` (centres undefined), the figures for the IC50 in [1], in test [10] and in [12] were 7 nM, greater than 10000 nM and greater than 10000 nM, respectively. Moreover, the values for the viability at 1 µM in [5] and in [14] were 52% and 25%, respectively. Besides, the viability at 0.5 µM in [6] was 15%. In addition, the viability at 0.1 µM in [8] stood at 46%.

In the case of `Cc1nc2ccccn2c1/C=N/NC(=O)COc1ccccc1-c1cccc2c1CN(C1CCC(=O)N(C)C1=O)C2=O` (centres undefined), the IC50 in test [1], in test [10] and in [12] was greater than 10000 nM in each case. Also, the results for the viability at 1 µM in [5] and in test [14] were greater than 100% and 89%, respectively.

As for `O=C(COc1ccc(-c2ccc3c(c2)CN(C2CCC(=O)NC2=O)C3=O)cc1)N/N=C/c1c(Cl)ccc(C(F)(F)F)c1Cl` (centres undefined), the viability at 1 µM in test [5] stood at 74%; in test [14] it was 47%.

As for `CN1C(=O)CCC(N2Cc3c(cccc3-c3ccccc3OCC(=O)N/N=C/c3nn(Cc4ccccc4)c4ccccc34)C2=O)C1=O` (centres undefined), the IC50 in [1], in test [10] and in [12] was greater than 1000 nM throughout. In addition, the viability at 1 µM in [5] was greater than 100%; in [14] it was 98%.

With `CN1C(=O)CCC(N2Cc3cc(-c4ccc(OCC(=O)N/N=C/c5c(Cl)ccc(C(F)(F)F)c5Cl)cc4)ccc3C2=O)C1=O` (centres undefined), the viability at 1 µM in test [5] and in test [14] was greater than 100% each time.

As for `O=C(COc1ccccc1-c1cccc2c1CN(C1CCC(=O)NC1=O)C2=O)N/N=C/c1nn(Cc2ccccc2)c2ccccc12` (centres undefined), the Activity result in test [2] is “Dose-Dependent Effect”; in [3], greater than 50%; in [7], 100%; in [9] it was 100%; in [13], “Tde”. Further, the results for the IC50 in [1], in test [10] and in test [12] were 2 nM, 260 nM and 370 nM, respectively. Also, the DC50 in test [4] is 50 nM. For the same compound, the viability at 1 µM turned out to be 7% in test [5] and 11% in test [14]. Further, the viability at 0.5 µM in test [6] amounted to 6%. Further, the viability at 0.1 µM in [8] worked out at 86%. Besides, the result in [11] was Active.

Regarding `CN1CCN(c2ncc(/C=N/NC(=O)COc3ccccc3-c3cccc4c3CN(C3CCC(=O)N(C)C3=O)C4=O)s2)CC1` (centres undefined), the IC50 in test [1] is greater than 1000 nM; in [10], greater than 10000 nM; in test [12] it was greater than 10000 nM. In addition, the viability at 1 µM in test [5] is greater than 100%; in test [14], 96%.

As for `O=C(COc1ccc(-c2ccc3c(c2)CN(C2CCC(=O)NC2=O)C3=O)cc1)N/N=C/c1c(C(F)(F)F)ccc(Cl)c1Cl` (centres undefined), the viability at 1 µM came out at 67% in test [5] and 54% in test [14].

For the compound `O=C(COc1ccccc1-c1cccc2c1CN(C1CCC(=O)NC1=O)C2=O)NCCc1cn(S(=O)(=O)c2ccccc2)c2ccccc12` (centres undefined), the DC50 in test [4] is 168 nM.

With `O=C(COc1ccccc1-c1cccc2c1CN(C1CCC(=O)NC1=O)C2=O)NCc1cn(S(=O)(=O)c2ccccc2)c2ccccc12` (centres undefined), the DC50 in [4] turned out to be 166 nM.
